# PubChem BioAssay (NCI)
# Values joined by “and” are separate entries in the source; they are usually repeats but may differ in a detail not shown here. Identical values can stand only once.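 Five compound concentrations were applied to cells in 96-well plates for 48 hours; endpoints were derived by simple linear interpolation of the resulting dose-response curve. Abbreviation: GI50, concentration required for 50% inhibition of growth. TGI denotes the concentration required for complete inhibition of growth.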 Where a SMILES comes first, the peptide text is derived from it. [ ]: non-standard residue; d: D form. 2Nal = N[CH](Cc1ccc2ccccc2c1)C(=O)O
# Columns and labels:
# Experiment in all cases: NCI tumour cell line growth inhibition, 48 h
# DMS 273 small cell lung = test system: DMS 273 small cell lung
# HOP-18 NSCLC = test system: HOP-18 NSCLC
# RXF-631 renal = test system: RXF-631 renal
# M19-MEL melanoma = test system: M19-MEL melanoma
# DMS 114 small cell lung = test system: DMS 114 small cell lung
# MCF7 breast = test system: MCF7 breast
# DU-145 prostate = test system: DU-145 prostate
# MDA-N = test system: MDA-N
# BT-549 breast = test system: BT-549 breast
# P388 leukemia = test system: P388 leukemia
# SN12K1 renal = test system: SN12K1 renal
# P388/ADR leukemia = test system: P388/ADR leukemia
smiles,measurement,setting,value
NNC(=O)N/N=C1\C(=O)N(c2nccs2)C(=O)C(=O)C1c1nc2ccccc2s1 (centres undefined),TGI,DMS 273 small cell lung,> 100 µM
same,TGI,HOP-18 NSCLC,88.5 µM
same,TGI,RXF-631 renal,> 100 µM
same,TGI,M19-MEL melanoma,> 100 µM
same,TGI,DMS 114 small cell lung,> 100 µM
CCCCCCCCCOC(=S)NCCCCC,TGI,DMS 273 small cell lung,58.3 µM
same,TGI,HOP-18 NSCLC,> 100 µM
same,TGI,M19-MEL melanoma,> 100 µM
same,TGI,DMS 114 small cell lung,47.4 µM
COC(=O)C(C(=O)C(=O)Nc1ccc(OC)cc1[N+](=O)[O-])c1nc2cc(C)c(C)cc2[nH]c1=O (centres undefined),TGI,HOP-18 NSCLC,> 100 µM
same,TGI,RXF-631 renal,> 100 µM
same,TGI,M19-MEL melanoma,> 100 µM
same,TGI,DMS 114 small cell lung,> 100 µM
CN(C)CCNC(=O)c1cccc2ncc(-c3ccccc3)nc12,TGI,DMS 273 small cell lung,17.8 µM
same,TGI,HOP-18 NSCLC,> 64.3 µM
same,TGI,RXF-631 renal,> 82.5 µM
same,TGI,M19-MEL melanoma,29.5 µM
same,TGI,DMS 114 small cell lung,26.6 µM
CC(C)C(NC(=O)C(CCCCN)NC(=O)C(Cc1c[nH]c2ccccc12)NC(=O)C(Cc1ccc(O)cc1)NC(=O)C(CS)NC(=O)C(N)Cc1ccc2ccccc2c1)C(=O)NC(CS)C(=O)NC(C(N)=O)C(C)O (centres undefined) (H-[2Nal]CYWKVCT-NH2; configuration not given here),TGI,DMS 273 small cell lung,> 100 µM
same,TGI,MCF7 breast,> 12.5 µM
same,TGI,HOP-18 NSCLC,> 100 µM
same,TGI,DU-145 prostate,> 12.5 µM
same,TGI,MDA-N,> 12.5 µM
same,TGI,RXF-631 renal,> 100 µM
same,TGI,M19-MEL melanoma,> 100 µM
same,TGI,DMS 114 small cell lung,> 100 µM
COc1cc(CC(C(=O)O)C(=O)O)c(OC)cc1CC(C(=O)O)C(=O)O,TGI,DMS 273 small cell lung,> 100 µM
same,TGI,M19-MEL melanoma,> 100 µM
same,TGI,DMS 114 small cell lung,> 100 µM
CCOC(=O)C1SC(=Nc2ccc(Cl)cc2C)N=C1C (centres undefined),TGI,DMS 273 small cell lung,66.9 µM
same,TGI,HOP-18 NSCLC,> 100 µM
same,TGI,RXF-631 renal,71.4 µM
same,TGI,M19-MEL melanoma,43.7 µM
same,TGI,DMS 114 small cell lung,35.3 µM
O=C(O)CC1CC=C[C@H]2c3cc4c(cc3C(=O)NC12)OCO4 (some centres undefined),TGI,DMS 273 small cell lung,> 75 µM
same,TGI,M19-MEL melanoma,> 75 µM
same,TGI,DMS 114 small cell lung,> 75 µM
CN(O)C(=S)c1ccccc1,TGI,DMS 273 small cell lung,4.03 µM
same,TGI,MCF7 breast,> 100 µM
same,TGI,HOP-18 NSCLC,> 100 µM
same,TGI,BT-549 breast,> 100 µM
same,TGI,DU-145 prostate,> 100 µM
same,TGI,MDA-N,> 20.5 µM
same,TGI,RXF-631 renal,2.92 µM
same,TGI,M19-MEL melanoma,4.68 µM
same,TGI,DMS 114 small cell lung,4.12 µM
O=C1C(=O)N(c2cccc(C(F)(F)F)c2)C(=O)C(=O)C1c1nc2ccccc2s1,TGI,DMS 273 small cell lung,> 100 µM
same,TGI,MCF7 breast,> 100 µM
same,TGI,HOP-18 NSCLC,> 100 µM
same,TGI,BT-549 breast,> 100 µM
same,TGI,DU-145 prostate,> 100 µM
same,TGI,MDA-N,> 100 µM
same,TGI,RXF-631 renal,> 100 µM
same,TGI,M19-MEL melanoma,> 100 µM
same,TGI,DMS 114 small cell lung,> 100 µM
COCOCC[C@@H]1CC=CC(NC(=O)OCc2ccccc2)C1/C=C/C(=O)CCC1OCCO1 (some centres undefined),TGI,DMS 273 small cell lung,> 59.1 µM
same,TGI,HOP-18 NSCLC,> 100 µM
same,TGI,M19-MEL melanoma,43.3 µM
same,TGI,DMS 114 small cell lung,86.5 µM
C=C1C(=O)OC2C1C(OC(=O)/C(C)=C\C)CC1(CO1)C1C(O)C=C(C)C21O (centres undefined),TGI,DMS 273 small cell lung,20 µM
same,TGI,HOP-18 NSCLC,23.3 µM
same,TGI,RXF-631 renal,16.9 µM
same,TGI,M19-MEL melanoma,25.4 µM
same,TGI,DMS 114 small cell lung,20.6 µM
OC1CCC[C@@H]1Sc1ccccc1 (some centres undefined),TGI,DMS 273 small cell lung,> 100 µM
same,TGI,RXF-631 renal,> 100 µM
same,TGI,M19-MEL melanoma,> 100 µM
same,TGI,DMS 114 small cell lung,> 100 µM
Cn1nc(-c2ccccc2)c(C(=O)/C=C/c2ccc(F)cc2)c(N2CCOCC2)c1=O,TGI,DMS 273 small cell lung,53 µM
same,TGI,HOP-18 NSCLC,37.3 µM
same,TGI,RXF-631 renal,86.6 µM
same,TGI,M19-MEL melanoma,39 µM
same,TGI,DMS 114 small cell lung,33.4 µM
Cc1nc(Nc2ccccc2)sc1C(=O)CC(=O)C(=O)NC12CC3CC(CC(C3)C1)C2,TGI,DMS 273 small cell lung,> 100 µM
same,TGI,HOP-18 NSCLC,> 100 µM
same,TGI,M19-MEL melanoma,> 100 µM
same,TGI,DMS 114 small cell lung,> 100 µM
NC(=Nc1nc(-c2ccccn2)cc2ccccc12)c1ccccn1,GI50,DMS 273 small cell lung,0.0231 µM
same,GI50,MCF7 breast,0.148 µM
same,TGI,MCF7 breast,> 100 µM
same,GI50,HOP-18 NSCLC,0.258 µM
same,TGI,HOP-18 NSCLC,27.1 µM
same,GI50,BT-549 breast,0.197 µM
same,TGI,BT-549 breast,> 100 µM
same,GI50,DU-145 prostate,0.135 µM
same,GI50,MDA-N,0.445 µM
same,TGI,MDA-N,> 100 µM
same,TGI,RXF-631 renal,0.244 µM
same,GI50,M19-MEL melanoma,0.199 µM
same,TGI,M19-MEL melanoma,0.953 µM
CC(=O)ON(C(C)=O)C1C(COC(c2ccccc2)(c2ccccc2)c2ccccc2)OC2OC3(CCCC3)OC21 (centres undefined),TGI,DMS 273 small cell lung,> 100 µM
same,TGI,HOP-18 NSCLC,> 100 µM
same,TGI,M19-MEL melanoma,> 100 µM
same,TGI,DMS 114 small cell lung,> 100 µM
COc1ccc(/C=C\c2cc(OC)c(OC)c(OC)c2)c(O)c1O,GI50,DMS 273 small cell lung,0.303 µM
same,TGI,DMS 273 small cell lung,63.1 µM
same,GI50,MCF7 breast,0.05 µM
same,GI50,HOP-18 NSCLC,109 µM
same,TGI,HOP-18 NSCLC,185 µM
same,TGI,BT-549 breast,32.3 µM
same,TGI,P388 leukemia,4.57 µM
same,TGI,MDA-N,< 0.0304 µM
same,TGI,SN12K1 renal,1.08 µM
same,TGI,P388/ADR leukemia,23.4 µM
same,GI50,M19-MEL melanoma,1.42 µM
same,TGI,M19-MEL melanoma,17.8 µM and 11.2 µM
same,GI50,DMS 114 small cell lung,0.196 µM
same,TGI,DMS 114 small cell lung,3.92 µM and 0.568 µM
C#CCN(N=O)C(=O)NCCCC(NC(C)=O)C(=O)NCc1ccccc1 (centres undefined),TGI,HOP-18 NSCLC,> 100 µM
same,TGI,RXF-631 renal,> 100 µM
same,TGI,M19-MEL melanoma,> 100 µM
same,TGI,DMS 114 small cell lung,> 100 µM
O=C(O)CCSC(=S)Nc1cccc(F)c1,TGI,DMS 273 small cell lung,> 100 µM
same,TGI,HOP-18 NSCLC,> 100 µM
same,TGI,M19-MEL melanoma,88.8 µM
same,TGI,DMS 114 small cell lung,51.8 µM
O=C1[C@H](Cl)[C@H]2c3cc4ccccc4nc3Oc3ccccc3N12,TGI,DMS 273 small cell lung,> 100 µM
same,TGI,M19-MEL melanoma,> 100 µM
same,TGI,DMS 114 small cell lung,70.2 µM
Cc1ccc(NC(=O)CC/C(CC(=O)C(C)(C)C)=N\Nc2ccc([N+](=O)[O-])cc2[N+](=O)[O-])cc1C,TGI,HOP-18 NSCLC,> 100 µM
same,TGI,RXF-631 renal,> 100 µM
same,TGI,M19-MEL melanoma,> 100 µM
same,TGI,DMS 114 small cell lung,> 100 µM
COc1cc2c(cc1OC)c1c(OC)c(OC)cc3c1c1c2sc(=S)n1CC3,TGI,DMS 273 small cell lung,> 100 µM
same,TGI,HOP-18 NSCLC,> 100 µM
same,TGI,M19-MEL melanoma,> 100 µM
same,TGI,DMS 114 small cell lung,98.1 µM
CC(=O)NC(CCCCN(Cc1ccccc1)C(=O)N(CCCl)N=O)C(=O)NCc1ccccc1 (centres undefined),TGI,DMS 273 small cell lung,> 100 µM
same,TGI,MCF7 breast,> 100 µM
same,TGI,HOP-18 NSCLC,87.5 µM
same,TGI,BT-549 breast,65.8 µM
same,TGI,DU-145 prostate,> 51.9 µM
same,TGI,MDA-N,36.3 µM
same,TGI,M19-MEL melanoma,> 100 µM
same,TGI,DMS 114 small cell lung,> 100 µM
CC(=O)O/N=C(Cl)/C(Cl)=N/OC(C)=O,TGI,DMS 273 small cell lung,> 100 µM
same,TGI,HOP-18 NSCLC,> 100 µM
same,TGI,DMS 114 small cell lung,> 100 µM
O=C(O)CCSC(=O)Nc1ccccc1Cl,TGI,DMS 273 small cell lung,> 100 µM
same,TGI,HOP-18 NSCLC,> 100 µM
same,TGI,RXF-631 renal,> 100 µM
same,TGI,M19-MEL melanoma,> 100 µM
same,TGI,DMS 114 small cell lung,> 100 µM
CCOC(=O)NC(=O)c1cn(CCN2CCNCC2)c(=O)[nH]c1=O,TGI,HOP-18 NSCLC,> 100 µM
same,TGI,M19-MEL melanoma,> 100 µM
same,TGI,DMS 114 small cell lung,> 100 µM
Nc1ccc2c(c1)Oc1c(F)c(F)cc3c(=O)c(C(=O)O)cn-2c13,TGI,HOP-18 NSCLC,> 100 µM
same,TGI,M19-MEL melanoma,> 100 µM
same,TGI,DMS 114 small cell lung,> 100 µM
Cc1ccc(/C=C(\C#N)c2ccccc2)cc1,TGI,DMS 273 small cell lung,> 100 µM
same,TGI,HOP-18 NSCLC,> 100 µM
same,TGI,M19-MEL melanoma,> 100 µM
same,TGI,DMS 114 small cell lung,> 100 µM
COc1ccc(C[C@H](N)C(=O)N2C[C@@H](CO)C[C@@H](n3cnc4c(N(C)C)ncnc43)C2)cc1,TGI,DMS 273 small cell lung,> 100 µM
same,TGI,HOP-18 NSCLC,> 100 µM
same,TGI,M19-MEL melanoma,> 100 µM
same,TGI,DMS 114 small cell lung,> 100 µM
CC(=N)N(C)O,TGI,HOP-18 NSCLC,> 100 µM
same,TGI,RXF-631 renal,> 100 µM
same,TGI,M19-MEL melanoma,> 100 µM
same,TGI,DMS 114 small cell lung,33.2 µM
N#Cc1cc(NC(=O)c2ccccc2)c(=O)n2c1[nH]c1ccccc12,TGI,DMS 273 small cell lung,> 100 µM
same,TGI,HOP-18 NSCLC,> 100 µM
same,TGI,RXF-631 renal,> 100 µM
same,TGI,M19-MEL melanoma,> 100 µM
same,TGI,DMS 114 small cell lung,95.5 µM
CC1=C2[C@H](c3ccccc3)C3C=CC2(c2ccccc23)N(C(=O)C(c2ccccc2)c2ccccc2)C1=O (some centres undefined),TGI,DMS 273 small cell lung,> 100 µM
same,TGI,HOP-18 NSCLC,> 100 µM
same,TGI,M19-MEL melanoma,> 100 µM
same,TGI,DMS 114 small cell lung,> 100 µM
CN(C)CCC1(C2=CCCC2)CC/C(=C\c2ccccc2Cl)C1=O (centres undefined),TGI,HOP-18 NSCLC,24.8 µM
same,TGI,RXF-631 renal,28.1 µM
same,TGI,M19-MEL melanoma,54.1 µM
same,TGI,DMS 114 small cell lung,29.5 µM
